Assay results reported in patent US20090275610A1, “TRICYCLIC OPIOID MODULATORS” (priority 2005, published 2009).
pEC50: −log10 of the molar value. “And” between values parts separate entries of the source, which are not always exact repeats. Identical values can stand only once. Like-named read-outs stand apart in the source and are kept apart here.

Columns and labels:
[1] = target: T1, delta opioid receptor (NG108-15 cell membranes) (Mus musculus, UniProt P32300); test: [35S]GTPγS binding assay in NG108-15 cell membranes (delta opioid); assay type: biochemical; settings: for EC50: delta GTPγS binding EC50 (nM); for delta GTPγS binding Rel Eff: value in parentheses; for pEC50: read-out: delta GTPγS binding EC50
T1 construct: NG108-15 cell membranes were purchased from Applied Cell Sciences (Rockville, Md.); host or cells: NG108-15 cell membranes (purchased)
T1 sequence (P32300 whole entry): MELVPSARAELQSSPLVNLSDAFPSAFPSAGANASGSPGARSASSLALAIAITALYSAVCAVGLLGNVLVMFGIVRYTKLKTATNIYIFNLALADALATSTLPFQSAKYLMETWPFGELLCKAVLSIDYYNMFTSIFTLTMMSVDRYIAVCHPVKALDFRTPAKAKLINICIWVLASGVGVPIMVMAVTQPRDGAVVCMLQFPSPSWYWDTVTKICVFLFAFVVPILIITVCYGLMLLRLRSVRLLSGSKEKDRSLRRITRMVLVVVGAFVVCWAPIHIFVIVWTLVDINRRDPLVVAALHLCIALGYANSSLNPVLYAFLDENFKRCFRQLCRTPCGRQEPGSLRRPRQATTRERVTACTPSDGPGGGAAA
Description: Functional Assay: [^35S]GTPγS Binding Assay in NG108-15 Cell Membranes (Delta Opioid)
Methods: NG108-15 cell membranes were purchased from Applied Cell Sciences (Rockville, Md.). A sample (8 mg/mL) of membrane protein suspended in 10 mM TRIS-HCl pH 7.2, 2 mM EDTA, 10% sucrose. Membranes were maintained at 4-8° C. A 1 mL volume of membranes was added into 10 mL cold binding assay buffer. The assay buffer contained 50 mM Tris, pH 7.6, 5 mM MgCl2, 100 mM NaCl, 1 mM DTT and 1 mM EGTA. The membrane suspension was homogenized twice with a Polytron, and centrifuged at 3000 rpm for 10 min. The supernatant was then centrifuged at 18,000 rpm for 20 min. Ten mL assay buffer was added into the pellet containing tube. The pellet and buffer were mixed with a Polytron.
Incubation procedure: The pellet membranes (75 μg/mL) were preincubated with SPA (10 mg/mL) at 25° C. for 45 min in the assay buffer. The SPA (5 mg/mL) coupled with membranes (37.5 μg/mL) was then incubated with 0.1 nM [^35S]GTPγS in the same Tris buffer containing 100 μM GDP in total volume of 200 μL. Increasing concentrations of receptor agonists were used to stimulate [^35S]-GTPγS binding. The basal binding was tested in the absence of agonists and non-specific binding was tested in the presence of 10 μM unlabeled GTPγS. The data were analyzed on a Packard Top Count.
% of Basal=(stimulated−non specific)*100/(basal−non specific).
(§1) EC50 values were calculated using GraphPad Prism.

delta opioid receptor = target: T2, delta opioid receptor (Rattus norvegicus, UniProt P33533); test: Rat brain delta opioid receptor binding assay; settings: rDOR (Ki, nM): Rat delta opioid receptor binding constant, rat forebrain membranes; [3H]DPDPE or [3H]naltrindole, 25° C., 2.5 h
T2 construct: the forebrains were homogenized in Tris buffer in a Teflon®-glass homogenizer; from tissue; host or cells: forebrain of male Wistar rats (particulate membrane preparation)
T2 sequence (P33533 whole entry): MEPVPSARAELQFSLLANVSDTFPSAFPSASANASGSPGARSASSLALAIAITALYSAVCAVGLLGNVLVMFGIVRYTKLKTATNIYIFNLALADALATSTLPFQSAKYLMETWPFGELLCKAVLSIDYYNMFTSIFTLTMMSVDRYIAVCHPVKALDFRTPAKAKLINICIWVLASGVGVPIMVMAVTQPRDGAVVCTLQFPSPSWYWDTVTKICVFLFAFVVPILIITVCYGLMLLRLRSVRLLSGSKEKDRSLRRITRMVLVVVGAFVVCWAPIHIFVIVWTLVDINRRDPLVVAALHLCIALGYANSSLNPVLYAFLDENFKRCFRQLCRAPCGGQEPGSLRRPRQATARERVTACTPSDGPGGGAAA
Description: Rat Brain Delta Opioid Receptor Binding Assay
(§2) Procedure: Male, Wistar rats (150-250 g, VAF, Charles River, Kingston, N.Y.) were killed by CO2, and their brains removed and placed immediately in ice cold Tris HCl buffer (50 mM, pH 7.4). The forebrains were separated from the remainder of the brain by a coronal transection, beginning dorsally at the colliculi and passing ventrally through the midbrain-pontine junction. After dissection, the forebrains were homogenized in Tris buffer in a Teflon®-glass homogenizer. The homogenate was diluted to a concentration of 1 g of forebrain tissue per 80 mL Tris and centrifuged at 39,000×g for 10 min. The pellet was resuspended in the same volume of Tris buffer containing 5 mM MgCl2 with several brief pulses from a Polytron homogenizer. This particulate preparation was used for the delta opioid binding assays.
(§3) Analysis: The data from the scintillation counter were used to calculate either the % inhibition compared to control binding (when only a single concentration of test compound was evaluated) or a Ki value (when a range of concentrations was tested). Percent inhibition was calculated as: [(total dpm−test compound dpm)/(total dpm−nonspecific dpm)]*100. Kd and Ki values were calculated using GraphPad PRISM data analysis program.

mu opioid receptor = target: T3, mu opioid receptor (Rattus norvegicus, UniProt P33535); test: Rat brain mu opioid receptor binding assay; settings: rMOR (Ki, nM): Rat mu opioid receptor binding constant, rat forebrain membranes; [3H]DAMGO, 25° C., 2.5 h
T3 construct: the forebrains were homogenized in Tris buffer in a Teflon®-glass homogenizer; from tissue; host or cells: forebrain of male Wistar rats (particulate membrane preparation)
T3 sequence (P33535 whole entry): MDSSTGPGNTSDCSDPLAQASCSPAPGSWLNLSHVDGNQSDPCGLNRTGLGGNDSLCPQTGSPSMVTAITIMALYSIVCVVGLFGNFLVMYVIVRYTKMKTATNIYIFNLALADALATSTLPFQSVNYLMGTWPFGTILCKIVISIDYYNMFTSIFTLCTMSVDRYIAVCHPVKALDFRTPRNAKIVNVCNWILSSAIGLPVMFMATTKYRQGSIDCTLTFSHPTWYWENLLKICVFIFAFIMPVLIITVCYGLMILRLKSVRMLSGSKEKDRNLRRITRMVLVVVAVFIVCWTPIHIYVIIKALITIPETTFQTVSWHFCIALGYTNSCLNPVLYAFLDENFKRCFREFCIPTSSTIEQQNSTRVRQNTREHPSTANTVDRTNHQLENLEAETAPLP
Description: Rat Brain Mu Opioid Receptor Binding Assay
as §2
as §3, with “concentrations” for “concentrations was”

[2] = target: T4, hMOR (CHO-hMOR cell membranes) (Homo sapiens, UniProt P35372); test: [35S]GTPγS binding assay in CHO-hMOR cell membranes; assay type: biochemical; settings: for mu GTPγS binding Rel Eff: value in parentheses
T4 construct: host or cells: CHO cells expressing hMOR (purchased membranes)
T4 sequence (P35372 whole entry): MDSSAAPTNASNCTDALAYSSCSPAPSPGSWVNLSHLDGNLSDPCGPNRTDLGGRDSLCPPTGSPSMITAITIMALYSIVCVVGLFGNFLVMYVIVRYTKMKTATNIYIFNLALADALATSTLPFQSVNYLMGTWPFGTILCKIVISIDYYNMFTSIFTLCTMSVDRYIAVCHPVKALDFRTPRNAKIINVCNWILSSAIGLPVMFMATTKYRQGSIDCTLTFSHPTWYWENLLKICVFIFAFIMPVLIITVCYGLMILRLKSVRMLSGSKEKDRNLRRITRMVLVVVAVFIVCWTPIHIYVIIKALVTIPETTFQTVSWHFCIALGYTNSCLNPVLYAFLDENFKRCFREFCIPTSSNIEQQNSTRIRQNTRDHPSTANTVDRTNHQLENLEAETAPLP
Description: Functional Assay: [^35S]GTPγS Binding Assays in CHO-hMOR Cell Membranes
Methods: CHO-hMOR cell membranes were purchased from Receptor Biology, Inc. (Baltimore, Md.). About 10 mg/mL of membrane protein was suspended in 10 mM TRIS-HCl pH 7.2, 2 mM EDTA, 10% sucrose, and the suspension kept on ice. A 1 mL volume of membranes was added to 15 mL cold binding assay buffer containing 50 mM HEPES, pH 7.6, 5 mM MgCl2, 100 mM NaCl, 1 mM DTT and 1 mM EDTA. The membrane suspension was homogenized with a Polytron and centrifuged at 3,000 rpm for 10 min. The supernatant was then centrifuged at 18,000 rpm for 20 min. The pellet was resuspended in 10 mL assay buffer with a Polytron. The membranes were preincubated with wheat germ agglutinin coated SPA beads (Amersham) at 25° C. for 45 min in the assay buffer. The SPA bead (5 mg/mL) coupled membranes (10 μg/mL) were then incubated with 0.5 nM [^35S]GTPγS in the assay buffer. […] A range of concentrations of receptor agonist was used to stimulate [^35S]GTPγS binding. Both basal and non-specific binding was tested in the absence of agonist; non-specific binding determination included 10 μM unlabeled GTPγS.
Compounds were tested for function as antagonists by evaluating their potential to inhibit agonist-stimulated GTPγS binding. Radioactivity was quantified on a Packard TopCount. The following parameters were calculated:
as §1

| SMILES | EC50 [1] | delta GTPγS binding Rel Eff [1] | Ki (delta opioid receptor) | Ki (mu opioid receptor) | pEC50 [2] | mu GTPγS binding Rel Eff ([2]; CHO-hMOR cell membranes) | pEC50 [1] | pEC50 ([2]; CHO-hMOR cell membranes, read-out: mu GTPγS binding EC50) |
| --- | --- | --- | --- | --- | --- | --- | --- | --- |
| Oc1cccc2c1Oc1ccccc1C2=C1CC2CCC(C1)N2 (racemic) [Cpd 2, 9-(8-Aza-bicyclo[3.2.1]oct-3-ylidene)-9H-xanthen-4-ol] | 50.9 nM | 0.67 | 0.48 nM | 7 nM | 6.42 | 0.37 |  |  |
| Oc1cccc2c1Oc1ccccc1C2=C1CC2CCC(C1)N2 (single isomer, unassigned) [Cpd 8, 9-(8-Azabicyclo[3.2.1]oct-3-ylidene)-9H-xanthen-4-ol] | 9.98 nM |  | 0.56 nM | 3.5 nM | 6.04 |  |  |  |
| NC(=O)c1cccc2c1Oc1ccccc1C2=C1CC2CCC(C1)N2 (single isomer, unassigned) [Cpd 37, 9-(8-Azabicyclo[3.2.1]oct-3-ylidene)-9H-xanthene-4-carboxylic acid amide] | 156 nM |  | 4 nM | 29 nM | 6.06 |  |  |  |
| Oc1cccc2c1Oc1ccccc1C2=C1CC2CCC(C1)N2Cc1ccccc1 (single isomer, unassigned) [Cpd 45, 9-(8-Benzyl-8-azabicyclo[3.2.1]oct-3-ylidene)-9H-xanthen-4-ol] | 1420 nM |  | 9.62 nM | 11.4 nM |  |  |  |  |
| Oc1cccc2c1Oc1ccccc1C2=C1CC2CCC(C1)N2Cc1ccccc1 (single isomer, unassigned) [Cpd 46, 9-(8-Benzyl-8-azabicyclo[3.2.1]oct-3-ylidene)-9H-xanthen-4-ol] |  |  | 0.03 nM | 0.19 nM |  |  | 7.99 |  |
| O=C(Nc1ccccc1)c1cccc2c1Oc1ccccc1C2=C1CC2CCC(C1)N2 (single isomer, unassigned) [Cpd 48, 9-(8-Azabicyclo[3.2.1]oct-3-ylidene)-9H-xanthene-4-carboxylic acid phenylamide] |  |  | 3.71 nM | 3.58 nM |  |  | 7.00 |  |
| Oc1cccc2c1Oc1ccccc1C2=C1CC2CCC(C1)N2Cc1cccnc1 (single isomer, unassigned) [Cpd 50, 9-(8-Pyridin-3-ylmethyl-8-azabicyclo[3.2.1]oct-3-ylidene)-9H-xanthen-4-ol] |  |  | 0.08 nM | 0.68 nM |  |  | 6.66 |  |
| CN1C2CCC1CC(=C1c3ccccc3Oc3c(O)cccc31)C2 (single isomer, unassigned) [Cpd 51, 9-(8-Methyl-8-azabicyclo[3.2.1]oct-3-ylidene)-9H-xanthen-4-ol] | 59.2 nM |  | 11.2 nM | 138 nM |  |  |  |  |
| O=C(NCCc1ccccc1)c1cccc2c1Oc1ccccc1C2=C1CC2CCC(C1)N2 (single isomer, unassigned) [Cpd 56, 9-(8-Azabicyclo[3.2.1]oct-3-ylidene)-9H-xanthene-4-carboxylic acid phenethylamide] |  |  | 49.6 nM | 6.96 nM |  |  | 7.40 |  |
| Oc1cccc2c1Oc1ccccc1C2=C1CC2CCC(C1)N2Cc1ccoc1 (single isomer, unassigned) [Cpd 58, 9-(8-Furan-3-ylmethyl-8-azabicyclo[3.2.1]oct-3-ylidene)-9H-xanthen-4-ol] |  |  | 0.1 nM | 0.45 nM |  |  | 8.59 |  |
| NC(=O)c1cccc2c1Oc1ccccc1C2=C1CC2CCC(C1)N2 [Cpd 3, 9-(8-Aza-bicyclo[3.2.1]oct-3-ylidene)-9H-xanthene-4-carboxylic acid amide] | 42 nM |  | 3.2 nM | 29.4 nM | 5.40 |  |  |  |
| NC(=O)c1cccc2c1Oc1ccccc1C2=C1CC2CCC(C1)N2Cc1ccoc1 [Cpd 4, 9-(8-Furan-3-ylmethyl-8-azabicyclo[3.2.1]oct-3-ylidene)-9H-xanthene-4-carboxylic acid amide] |  |  | 2.3 nM | 2.5 nM |  |  | 8.03 | 5.39 |
| CNC(=O)c1cccc2c1Oc1ccccc1C2=C1CC2CCC(C1)N2 [Cpd 10, 9-(8-Azabicyclo[3.2.1]oct-3-ylidene)-9H-xanthene-4-carboxylic acid methylamide] | 617 nM |  |  | 27 nM and 51 nM | < 5.00 |  |  |  |
| O=C(Nc1ccccc1)c1cccc2c1Oc1ccccc1C2=C1CC2CCC(C1)N2 [Cpd 12, 9-(8-Azabicyclo[3.2.1]oct-3-ylidene)-9H-xanthene-4-carboxylic acid phenylamide] | 30.3 nM | 1.03 | 272 nM and 67.9 nM | 32 nM | 6.21 | 0.96 |  |  |
| O=C(NCc1ccccc1)c1cccc2c1Oc1ccccc1C2=C1CC2CCC(C1)N2 [Cpd 13, 9-(8-Azabicyclo[3.2.1]oct-3-ylidene)-9H-xanthene-4-carboxylic acid benzylamide] | 5.68 nM | 0.87 |  | 15 nM and 12.7 nM | 6.14 | 0.67 |  |  |
| O=C(NCCc1ccccc1)c1cccc2c1Oc1ccccc1C2=C1CC2CCC(C1)N2 [Cpd 14, 9-(8-Azabicyclo[3.2.1]oct-3-ylidene)-9H-xanthene-4-carboxylic acid phenethyl-amide] | 10.4 nM | 0.92 |  | 44 nM and 36.2 nM | 6.00 | 0.54 |  |  |
| Oc1cccc2c1Oc1ccccc1C2=C1CCNCC1 [Cpd 16, 9-Piperidin-4-ylidene-9H-xanthen-4-ol] | 964 nM |  | 15.1 nM | 776 nM |  |  |  |  |
| CN1C2CCC1CC(=C1c3ccccc3Oc3c(O)cccc31)C2 [Cpd 19, 9-(8-Methyl-8-azabicyclo[3.2.1]oct-3-ylidene)-9H-xanthen-4-ol] | 768 nM |  | 28.3 nM | 372 nM | < 5.00 |  |  |  |
| Oc1cccc2c1Oc1ccccc1C2=C1CC2CCCC(C1)N2 [Cpd 20, 9-(9-Azabicyclo[3.3.1]non-3-ylidene)-9H-xanthen-4-ol] | 180 nM |  | 20.2 nM | 32.6 nM | 5.15 |  |  |  |
| O=CNc1cccc2c1Oc1ccccc1C2=C1CC2CCC(C1)N2 [Cpd 44, N-[9-(8-Azabicyclo[3.2.1]oct-3-ylidene)-9H-xanthen-4-yl]-formamide] | 7.03 nM |  | 19.2 nM | 45.2 nM |  |  |  |  |
| NC(=O)c1cccc2c1Sc1ccccc1C2=C1CC2CCC(C1)N2 [Cpd 63, 9-(8-Azabicyclo[3.2.1]oct-3-ylidene)-9H-thioxanthene-4-carboxylic acid amide] | 2.7 nM |  | 0.71 nM | 3.31 nM |  |  |  |  |
